Measurements published in US20180237358A1, “RADIOISOTOPE 18F SUBSTITUTED THIAMINE, AND SYNTHESIS METHOD AND USE THEREOF” (ZHONGSHAN HOSPITAL FUDAN UNIVERSITY, priority 2015, published 2018).
“And” between values parts separate entries of the source, which are not always exact repeats. Equal entries are not always repeated.

How the values were obtained:
[1] = PET/CT scan of ICR mice with ^18F substituted thiamine as tracer, whole brain ROI (SUV, TAC); format: in vivo
Text: 1. Experiments on Scanning of ICR Mice by Using ^18F Substituted Thiamine as a PET/CT Tracer.
(§1) 1.1. Experimental Drug: ^18F Substituted Thiamine (Synthesized and Identified as in Example 1).
(§2) 1.2. Animals and treatments: 8-week-old ICR mice, SPF grade, purchased from Shanghai SLAC Laboratory Animal Co., Ltd, were housed in a barrier environment and assigned to a treatment group and a control group randomly. The animals in the treatment group were fed with thiamine deficient diet (n=3), and the animals in the control group were fed with normal diet (n=3). After 28 days, PET/CT scan of the mice was performed.
1.3. PET/CT scan of the mice: small animal PET/CT scanner (Inveon, Siemens) thickness of PET layer: 0.78 mm, 128*128 matrix, energy window: 350-650 kev, CT tube current: 500 uA, tube voltage: 80 kv; scan mode: dynamic scan; scan time: 90 min.
(§3) 1.4. Processing of PET/CT image: After the acquisition, the images were reconstructed with two iterations of 3D OSEM. The whole brain was delimited as the region of interest (ROI) by the image processing software coming with the Inveon small animal PET/CT scanner. The Standard uptake value (SUV) and TAC within 90 min were calculated.

[2] = PET/CT scan of C57BL/6 mice with ^18F substituted thiamine as tracer, whole brain ROI (SUV, TAC); format: in vivo
Text: 1. Experiments on Scanning of C57BL/6 Mice by Using ^18F Substituted Thiamine as a PET/CT Tracer.
as §1
as §2, with “treatments: 8-week-old C57BL/6 mice, SPF” for “treatments: 8-week-old ICR mice, SPF”, “a control group, randomly. The” for “a control group randomly. The”, “deficient diet (n=2), and the” for “deficient diet (n=3), and the”
1.3. PET/CT scan of the mice: Small animal PET/CT scanner (Inveon, Siemens), thickness of PET layer: 0.78 mm, 128*128 matrix, energy window: 350-650 kev, CT tube current: 500 uA, tube voltage: 80 kv; scan mode: dynamic scan; scan time: 90 min.
as §3, with “SUV” for “Standard uptake value (SUV)”

[3] = PET/CT scan of ICR mice with ^18F substituted thiamine as tracer, whole brain ROI (SUV, TAC); format: in vivo; conditions: control group ICR mice (normal diet), two mice
[4] = small animal PET/CT scan of two strains of mice (summary statement); format: in vivo, mice (ICR and C57BL/6); conditions: ICR and C57BL/6 mice
Text: is successfully substituted with ^18F atom, and a fluorine-substituted thiamine (Formula I) and a hydrobromide thereof (Formula II) are synthesized. Subsequently, the present inventors scan two strains of mice (ICR and C57BL/6) using the small animal PET/CT.

Row | SMILES | uptake in the brains of thiamine-deficient group versus control (images) ([1]; ICR mice, FIGS. 8 and 9) | SUV value at peak of absorption in the brain ([1]; thiamine-deficient group ICR mice, individual mice) | time of peak of absorption in the brain ([1]; thiamine-deficient group ICR mice, individual mice, 90 min dynamic scan) | uptake in the brains of thiamine-deficient mice versus control (images) ([2]; C57BL/6 mice, FIGS. 12 and 13) | SUV value at absorption peak in the brain ([2]; control group C57BL/6 mice (normal diet), individual mice) | SUV value at peak of accumulation in the brain ([2]; thiamine-deficient group C57BL/6 mice, individual mice, at 90 min) | time of peak of accumulation in the brain ([2]; thiamine-deficient group C57BL/6 mice, two mice, rose continuously over 90 min) [min] | SUV value at absorption peak in the brain [3] | time of absorption peak in the brain [3] | uptake in the brain of thiamine-deficient model mice versus control mice [4] | blood-brain barrier penetration ([4]; small animal PET/CT)
1 | Cc1ncc(C[n+]2csc(CC[18F])c2C)c(N)n1 [^18F substituted thiamine, 3-[(4-Amino-2-methylpyrimidin-5-yl)methyl]-5-(2-fluoroethyl)-4-methylthiazolium] | obviously increased | 0.98 and 0.97 and 0.61 | 22.5 min and 35 min and 65 min | obviously increased | 0.17 and 0.25 and 0.3 | 0.48 and 0.55 | 90 | 0.18 and 0.36 | about 20 min | – | –
2 | Br.Cc1ncc(C[n+]2csc(CC[18F])c2C)c(N)n1.[Br-] [^18F substituted thiamine hydrobromide] | – | – | – | – | – | – | – | – | – | significantly higher | successfully penetrates the blood-brain barrier
